Measured values: patent US4474794A, “N-Thiazolylmethylthioalkyl-N^1 -alkenyl (or alkynyl)guanidines and related compounds” (Eli Lilly and Company, priority 1982, dated 1984)

Legend:
H2 -receptor = conditions: said in U.S. Pat. No. 4,203,909; cited from earlier work
H2 -receptors = target: T1, H2 -receptors (Rattus norvegicus, UniProt P25102); experiment: H2-receptor blocking activity, histamine relaxation of KCl-contracted isolated rat uterine horns; assay type: cell-based; conditions: for Kb: antagonist 10^-5 molar for 30 minutes, rat uterine strips, histamine dose-response shift, read-out: pA2 (-log KB) (converted)
T1 construct: uterine horns removed therefrom and suspended at ambient temperatures in isolated organ baths; from tissue; host or cells: isolated uterine horns of estrone-treated female albino rats
T1 sequence (P25102 whole entry): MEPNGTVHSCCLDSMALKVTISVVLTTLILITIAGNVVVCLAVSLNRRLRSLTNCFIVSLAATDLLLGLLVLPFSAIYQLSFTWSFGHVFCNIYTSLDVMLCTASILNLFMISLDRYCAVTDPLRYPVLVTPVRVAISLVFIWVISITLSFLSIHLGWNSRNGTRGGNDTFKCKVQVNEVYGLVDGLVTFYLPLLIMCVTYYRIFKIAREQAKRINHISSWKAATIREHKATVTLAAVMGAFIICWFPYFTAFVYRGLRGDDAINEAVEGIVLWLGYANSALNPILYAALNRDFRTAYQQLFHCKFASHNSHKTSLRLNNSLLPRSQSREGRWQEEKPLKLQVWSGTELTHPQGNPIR
Description: The following assay for H2 -receptor blocking activity was employed. Female albino rats were treated with estrone 24 hours prior to the initiation of the experiment. The rats were sacrificed and the uterine horns removed therefrom and suspended at ambient temperatures in isolated organ baths containing De Jalon's solution. After equilibration, the uterine strips are exposed to 50 millimole aqueous potassium chloride, which produces a sustained contraction. When the uterus is so contracted, histamine produces a dose-dependent H2 -receptor-mediated relaxation. A control dose-response curve to histamine is constructed on each tissue. Following thorough washout of the histamine after obtaining the control dose-response curve, each antagonist (the compounds of this invention) is added for 30 minutes at a concentration of 10^-5 molar. The uterine strips are then contracted with aqueous potassium chloride in the presence of the antagonist and a second dose-response curve to histamine obtained. In the presence of a competitive antagonist, the dose-response curve to histamine is shifted in parallel to the right with no depression of the maximum relative to the control curve. The dose ratio (DR) is calculated for each concentration of antagonist by dividing the ED50 of histamine in the presence of the competitive antagonist by the control ED50 for histamine. The dissociation constant (KB ) of the antagonist is calculated from the dose-ratios by the following equation: […]
Cimetidine is included as an internal standard.

acid secretion = experiment: in vivo antisecretory action on histamine-stimulated acid secretion in gastric fistula dogs
Description: An in vivo assay for antisecretory action of drugs on acid secretion utilizes gastric fistula dogs with vagally innervated gastric fistula and vagally denervated Heidenhain pouch. In this procedure, a steady-state gastric secretion is produced by the iv infusion of histamine. The antisecretory drugs under test are given either intravenously by infusion over a 30 minute period or orally 75 min. prior to collection of gastric secretion from the fistula.

H2 receptor = conditions: prior art; cited from earlier work

C#CCNC(=C[N+](=O)[O-])NCCSCc1ccc(CN(C)C)o1 [1-nitro-2-(2-propynylamino)-2-(2-[(5-dimethylaminomethyl-2-furyl)methylthio]ethylamino)ethylene]
times the activity of cimetidine (H2 -receptor): 7.45 times

C#CCNC(=NC#N)NCCSCc1csc(CN(C)C)n1 [N-2-propynyl-N'-2-(2-dimethylaminomethyl-4-thiazolylmethylthio)ethyl-N"-cyanoguanidine]
Kb (H2 -receptors): 1000 nM

C#CCNC(=C[N+](=O)[O-])NCCSCc1csc(CN(C)C)n1 [N-(2-propynyl)-N'-2-(2-dimethylaminomethyl-4-thiazolylmethylthio)ethyl 2-nitro-1,1-ethenediamine]
Kb (H2 -receptors): 186 nM | times higher affinity for the H2 -receptors than cimetidine (H2 -receptors; relative to cimetidine internal standard): approximately 3.63 times | ED50 (acid secretion; Canis lupus familiaris, 0.5 h, iv infusion over 30 minutes, histamine-stimulated gastric secretion): 0.068 µmol/kg | times smaller ED50 (iv) than that found for cimetidine (acid secretion; iv, relative to cimetidine): over 7 times

CNC(=C[N+](=O)[O-])NCCSCc1ccc(CN(C)C)o1 [ranitidine]
H2 receptor antagonist activity compared with cimetidine (H2 receptor): greater H2 receptor antagonist activity than cimetidine
